In one experiment the test system is glioblastoma tumor. In words: Glioblastoma tumor size after irradiation with 50x50 microbeam array (Example 2) followed by cisplatin. Type of experiment: in vivo. The note with it: Cisplatin administered within 30 min to 1 h after irradiation with 50x50 microbeam array. An excerpt: In this example, CAM were irradiated at the biomedical beamline of ESRF. The generation and preparation of the microbeams occurred basically in the same manner as described in Example 1 according to a second preferred embodiment with the substantially circular cross-section of each microbeam. The difference here however is that behind the multi-slit collimator a second collimator (such as an Archer variable multi-slit collimator) was placed into the path of the first array of microbeams formed by the first collimator. […] A GafChromic radiochromic film type […] But in Example 2 the irradiation rather punctures the tissue. Therefore, the level of exposure of the irradiated tissue is even less lethal and results in a […] chemotherapeutic window (compared to FIG. 4).

Experiment [1] has as its system U-87 MG human glioblastoma xenographs. Briefly: Tumor volume in U-87 MG human glioblastoma xenografts after microbeam radiation (fan-like array) and/or cisplatin. Type of experiment: in vivo, Balb/c nude mice.

For `N.N.[Cl][Pt][Cl]` [Cisplatin, cisplatin], the “glioblastoma tumor sizes after treatment” value with glioblastoma tumor is “progressive and significant decrease”. Further, the “tumor sizes after treatment (tumor volume, FIG. 8a)” value is “progressive and significant decrease” in experiment [1] (double treatment (DT): Cisplatin administered after the MR procedure, within window of increased vascular permeability); “gradual increase in size” in experiment [1] (only Cisplatin, single chemotherapeutic treatment, no irradiation).

(Values after US9649298B2, “Cytotoxic substance for use in combination with radiotherapy in cancer treatment” (Fumedica AG, priority 2013, dated 2017).)
